Test results as given in ChEMBL document CHEMBL3217463, “Design, synthesis and biological evaluation of -lactam hydroxamate based TACE inhibitors” (Medchemcomm, 2011).
pIC50: −log10 of the molar value. Each block holds one molecule with its values, some of them ahead of it.

How the values were obtained:
[1] = tested on: Blood; test: Antiinflammatory activity in human whole blood assessed as inhibition of LPS-induced TNFalpha secretion by ELISA; format: functional, tissue-based
[2] = tested on: Mus musculus; test: Antiinflammatory activity in po dosed Swiss Albino mouse assessed as inhibition of LPS-induced TNFalpha secretion in blood treated 0.5 hrs before LPS and measured after 1 hr of LPS stimulus by ELISA; format: functional
[3] = target: T1, Disintegrin and metalloproteinase domain-containing protein 17 (Homo sapiens, UniProt P78536); test: Ratio of IC50 for human catalytic domain of TACE to IC50 for MMP2 (unknown origin)
T1 sequence (P78536 whole entry, the tested form may be a part): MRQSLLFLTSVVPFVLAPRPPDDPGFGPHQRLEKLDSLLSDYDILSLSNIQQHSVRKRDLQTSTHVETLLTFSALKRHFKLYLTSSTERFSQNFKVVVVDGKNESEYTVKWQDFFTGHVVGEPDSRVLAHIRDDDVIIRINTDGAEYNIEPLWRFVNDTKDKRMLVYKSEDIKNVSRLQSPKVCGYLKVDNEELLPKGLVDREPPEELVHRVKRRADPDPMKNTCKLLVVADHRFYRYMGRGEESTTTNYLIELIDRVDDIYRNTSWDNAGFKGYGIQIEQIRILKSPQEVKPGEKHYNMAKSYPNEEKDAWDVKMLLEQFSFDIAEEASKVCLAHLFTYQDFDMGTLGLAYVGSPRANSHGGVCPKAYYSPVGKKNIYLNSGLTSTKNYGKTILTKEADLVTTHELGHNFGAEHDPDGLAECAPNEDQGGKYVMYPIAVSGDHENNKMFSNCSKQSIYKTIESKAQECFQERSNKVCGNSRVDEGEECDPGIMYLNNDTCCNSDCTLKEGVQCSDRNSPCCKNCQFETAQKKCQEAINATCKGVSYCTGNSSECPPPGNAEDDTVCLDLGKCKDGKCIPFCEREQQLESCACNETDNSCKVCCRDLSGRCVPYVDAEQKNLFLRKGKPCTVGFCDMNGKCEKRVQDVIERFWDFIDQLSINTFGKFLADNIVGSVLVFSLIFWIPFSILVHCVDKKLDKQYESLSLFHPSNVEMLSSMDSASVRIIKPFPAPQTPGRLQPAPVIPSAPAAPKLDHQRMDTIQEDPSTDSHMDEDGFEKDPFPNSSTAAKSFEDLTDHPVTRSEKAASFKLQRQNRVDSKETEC

[4] = target: Matrix metalloproteinase-14 (Homo sapiens, UniProt P50281); test: Inhibition of MMP14 (unknown origin) by fluorescence-based FRET assay
[5] = target: Neutrophil collagenase (Homo sapiens, UniProt P22894); test: Inhibition of MMP8 (unknown origin) by fluorescence-based FRET assay
Chain of Neutrophil collagenase (P22894 whole entry, the tested form may be a part): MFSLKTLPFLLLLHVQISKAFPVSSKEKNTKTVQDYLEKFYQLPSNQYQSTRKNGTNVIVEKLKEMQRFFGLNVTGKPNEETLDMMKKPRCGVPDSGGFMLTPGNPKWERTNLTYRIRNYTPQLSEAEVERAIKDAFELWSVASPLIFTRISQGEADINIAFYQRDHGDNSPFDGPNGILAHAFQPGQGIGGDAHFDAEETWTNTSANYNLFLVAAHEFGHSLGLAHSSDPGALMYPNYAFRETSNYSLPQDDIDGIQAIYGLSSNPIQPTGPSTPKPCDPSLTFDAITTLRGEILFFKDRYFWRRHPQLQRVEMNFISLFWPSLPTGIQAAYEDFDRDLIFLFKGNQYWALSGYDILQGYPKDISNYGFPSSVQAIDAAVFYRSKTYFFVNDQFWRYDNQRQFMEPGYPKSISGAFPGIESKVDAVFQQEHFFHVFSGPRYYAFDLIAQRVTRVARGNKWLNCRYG

[6] = target: T1, Disintegrin and metalloproteinase domain-containing protein 17; test: Ratio of IC50 for human catalytic domain of TACE to IC50 for MMP14 (unknown origin)
[7] = target: Stromelysin-1 (Homo sapiens, UniProt P08254); test: Inhibition of MMP3 (unknown origin) by fluorescence-based FRET assay
Chain of Stromelysin-1 (P08254 whole entry): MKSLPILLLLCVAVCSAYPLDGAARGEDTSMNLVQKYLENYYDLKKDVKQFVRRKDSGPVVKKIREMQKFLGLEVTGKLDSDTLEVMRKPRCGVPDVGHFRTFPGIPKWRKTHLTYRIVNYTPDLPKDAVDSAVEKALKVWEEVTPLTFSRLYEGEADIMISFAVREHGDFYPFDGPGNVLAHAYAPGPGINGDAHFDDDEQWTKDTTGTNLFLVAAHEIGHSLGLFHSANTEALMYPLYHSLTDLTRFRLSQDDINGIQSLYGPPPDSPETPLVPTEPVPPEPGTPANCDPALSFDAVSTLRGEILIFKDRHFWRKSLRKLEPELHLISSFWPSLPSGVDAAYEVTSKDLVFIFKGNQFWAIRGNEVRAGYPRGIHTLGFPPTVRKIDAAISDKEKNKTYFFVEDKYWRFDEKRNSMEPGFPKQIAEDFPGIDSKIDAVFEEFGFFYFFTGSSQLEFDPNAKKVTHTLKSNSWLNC

[8] = target: 72 kDa type IV collagenase (Homo sapiens, UniProt P08253); test: Inhibition of MMP2 (unknown origin) by fluorescence-based FRET assay
Chain of 72 kDa type IV collagenase (P08253 whole entry, the tested form may be a part): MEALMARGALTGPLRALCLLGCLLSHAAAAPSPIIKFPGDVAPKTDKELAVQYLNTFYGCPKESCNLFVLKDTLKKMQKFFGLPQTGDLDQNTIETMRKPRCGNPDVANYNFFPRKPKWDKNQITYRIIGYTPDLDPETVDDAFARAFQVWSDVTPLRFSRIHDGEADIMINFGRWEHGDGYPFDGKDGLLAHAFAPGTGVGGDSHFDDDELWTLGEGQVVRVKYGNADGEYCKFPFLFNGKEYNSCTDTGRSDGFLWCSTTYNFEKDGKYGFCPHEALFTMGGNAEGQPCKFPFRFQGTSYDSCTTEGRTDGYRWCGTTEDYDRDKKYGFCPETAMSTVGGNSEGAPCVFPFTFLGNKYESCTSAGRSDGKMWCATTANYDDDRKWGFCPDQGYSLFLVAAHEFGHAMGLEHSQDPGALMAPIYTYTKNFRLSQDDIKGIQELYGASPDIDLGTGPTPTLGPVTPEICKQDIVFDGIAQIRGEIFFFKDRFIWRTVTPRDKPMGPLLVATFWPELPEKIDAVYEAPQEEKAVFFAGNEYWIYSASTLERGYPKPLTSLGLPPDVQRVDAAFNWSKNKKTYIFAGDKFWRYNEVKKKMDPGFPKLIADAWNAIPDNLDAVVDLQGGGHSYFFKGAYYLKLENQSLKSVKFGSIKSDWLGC

[9] = target: T2, Disintegrin and metalloproteinase domain-containing protein 10 (Homo sapiens, UniProt O14672); test: Inhibition of ADAM10 (unknown origin) using fluorescent substrate by fluorescence-based FRET assay
T2 sequence (O14672 whole entry): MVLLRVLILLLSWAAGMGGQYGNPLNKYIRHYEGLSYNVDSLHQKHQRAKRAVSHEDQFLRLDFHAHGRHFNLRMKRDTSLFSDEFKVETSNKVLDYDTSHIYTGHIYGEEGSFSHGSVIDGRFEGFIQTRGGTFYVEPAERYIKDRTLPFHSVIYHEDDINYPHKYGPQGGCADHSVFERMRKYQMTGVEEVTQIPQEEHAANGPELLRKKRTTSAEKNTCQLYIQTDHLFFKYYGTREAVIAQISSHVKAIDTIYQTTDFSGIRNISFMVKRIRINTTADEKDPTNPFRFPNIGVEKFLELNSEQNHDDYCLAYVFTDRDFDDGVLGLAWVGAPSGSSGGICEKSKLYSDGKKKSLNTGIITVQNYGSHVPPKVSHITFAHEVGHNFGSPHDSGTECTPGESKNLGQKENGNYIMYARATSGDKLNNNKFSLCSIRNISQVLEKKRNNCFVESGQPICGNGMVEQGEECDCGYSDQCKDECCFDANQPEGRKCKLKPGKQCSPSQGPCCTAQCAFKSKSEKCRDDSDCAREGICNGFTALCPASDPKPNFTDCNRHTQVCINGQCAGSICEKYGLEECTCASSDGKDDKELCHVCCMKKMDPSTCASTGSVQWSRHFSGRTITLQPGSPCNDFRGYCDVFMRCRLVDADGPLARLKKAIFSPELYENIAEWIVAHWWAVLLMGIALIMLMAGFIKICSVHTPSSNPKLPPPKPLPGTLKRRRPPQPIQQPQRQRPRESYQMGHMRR

[10] = target: Collagenase 3 (Homo sapiens, UniProt P45452); test: Inhibition of MMP13 (unknown origin) by fluorescence-based FRET assay
[11] = target: T3, Interstitial collagenase (Homo sapiens, UniProt P03956); test: Inhibition of MMP1 (unknown origin) by fluorescence-based FRET assay
T3 sequence (P03956 whole entry): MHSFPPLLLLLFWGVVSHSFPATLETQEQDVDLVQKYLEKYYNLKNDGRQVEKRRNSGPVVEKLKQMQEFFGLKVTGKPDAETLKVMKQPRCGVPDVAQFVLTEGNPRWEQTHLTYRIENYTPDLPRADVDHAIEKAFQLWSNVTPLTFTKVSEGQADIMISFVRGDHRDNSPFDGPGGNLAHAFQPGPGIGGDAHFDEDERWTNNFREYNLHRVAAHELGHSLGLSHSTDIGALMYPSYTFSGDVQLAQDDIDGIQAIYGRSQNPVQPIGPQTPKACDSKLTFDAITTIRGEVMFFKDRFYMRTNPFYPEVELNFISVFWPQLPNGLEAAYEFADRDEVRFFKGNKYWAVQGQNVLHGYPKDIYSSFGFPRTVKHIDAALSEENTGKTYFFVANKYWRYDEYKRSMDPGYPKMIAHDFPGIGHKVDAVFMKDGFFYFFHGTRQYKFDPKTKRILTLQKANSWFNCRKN

[12] = target: T1, Disintegrin and metalloproteinase domain-containing protein 17; test: Ratio of IC50 for human catalytic domain of TACE to IC50 for MMP13 (unknown origin)
[13] = target: T1, Disintegrin and metalloproteinase domain-containing protein 17; test: Ratio of IC50 for human catalytic domain of TACE to IC50 for ADAM10 (unknown origin)
[14] = target: T1, Disintegrin and metalloproteinase domain-containing protein 17; test: Ratio of IC50 for human catalytic domain of TACE to IC50 for MMP7 (unknown origin)
[15] = target: T4, Matrilysin (Homo sapiens, UniProt P09237); test: Inhibition of MMP7 (unknown origin) by fluorescence-based FRET assay
T4 sequence (P09237 whole entry): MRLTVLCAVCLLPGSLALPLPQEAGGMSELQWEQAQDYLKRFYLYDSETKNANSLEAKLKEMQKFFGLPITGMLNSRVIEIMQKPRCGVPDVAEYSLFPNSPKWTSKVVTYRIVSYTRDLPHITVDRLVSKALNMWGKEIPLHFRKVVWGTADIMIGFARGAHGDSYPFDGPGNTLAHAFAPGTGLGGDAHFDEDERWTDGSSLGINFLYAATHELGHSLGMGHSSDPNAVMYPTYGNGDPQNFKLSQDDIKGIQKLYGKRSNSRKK

[16] = target: T1, Disintegrin and metalloproteinase domain-containing protein 17; test: Ratio of IC50 for human catalytic domain of TACE to IC50 for MMP3 (unknown origin)
[17] = target: Matrix metalloproteinase-9 (Homo sapiens, UniProt P14780); test: Inhibition of MMP9 (unknown origin) by fluorescence-based FRET assay
Chain of Matrix metalloproteinase-9 (P14780 whole entry, the tested form may be a part): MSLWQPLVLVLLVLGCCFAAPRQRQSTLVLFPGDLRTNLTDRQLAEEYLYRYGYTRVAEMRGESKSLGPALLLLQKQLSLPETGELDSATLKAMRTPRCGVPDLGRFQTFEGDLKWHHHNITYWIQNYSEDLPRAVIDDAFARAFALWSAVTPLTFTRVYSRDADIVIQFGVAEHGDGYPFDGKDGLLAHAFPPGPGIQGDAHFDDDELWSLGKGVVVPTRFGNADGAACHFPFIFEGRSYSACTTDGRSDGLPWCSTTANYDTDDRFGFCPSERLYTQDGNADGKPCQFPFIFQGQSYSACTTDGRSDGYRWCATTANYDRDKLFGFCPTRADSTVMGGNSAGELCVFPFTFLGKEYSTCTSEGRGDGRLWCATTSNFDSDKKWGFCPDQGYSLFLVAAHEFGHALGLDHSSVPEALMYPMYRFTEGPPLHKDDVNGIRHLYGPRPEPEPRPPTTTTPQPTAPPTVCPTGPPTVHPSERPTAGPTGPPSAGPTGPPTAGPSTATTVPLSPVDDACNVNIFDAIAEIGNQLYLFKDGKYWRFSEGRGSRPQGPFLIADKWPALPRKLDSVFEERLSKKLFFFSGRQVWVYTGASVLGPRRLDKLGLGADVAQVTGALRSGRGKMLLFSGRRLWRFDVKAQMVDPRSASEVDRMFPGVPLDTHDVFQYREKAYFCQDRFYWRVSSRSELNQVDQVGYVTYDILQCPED

[18] = target: T1, Disintegrin and metalloproteinase domain-containing protein 17; test: Ratio of IC50 for human catalytic domain of TACE to IC50 for MMP8 (unknown origin)
[19] = target: T1, Disintegrin and metalloproteinase domain-containing protein 17; test: Ratio of IC50 for human catalytic domain of TACE to IC50 for MMP1 (unknown origin)
[20] = target: T1, Disintegrin and metalloproteinase domain-containing protein 17; test: Ratio of IC50 for human catalytic domain of TACE to IC50 for MMP9 (unknown origin)
[21] = target: T1, Disintegrin and metalloproteinase domain-containing protein 17; test: Inhibition of human catalytic domain of TACE assessed as inhibit the cleavage of the substrate by fluorescence-based FRET assay

SMILES: CC(C)C[C@H](C(=O)NO)N1CC[C@@](N)(c2ccc(OCc3cc(-c4ccccc4)nc4ccccc34)cc2)C1=O
pIC50 [1]: 5.51

SMILES: COCc1cc(COc2ccc([C@]3(N)CCN([C@H](C)C(=O)NO)C3=O)cc2)c2ccccc2n1
pIC50 [1]: 7.01

SMILES: COc1cc(COc2ccc([C@]3(N)CCN([C@H](CC(C)C)C(=O)NO)C3=O)cc2)c2ccccc2n1
pIC50 [1]: 6.40

SMILES: CC(C)C[C@H](C(=O)NO)N1CC[C@@](N)(c2ccc(OCc3cc(-c4ccc(Cl)cc4)nc4ccccc34)cc2)C1=O
pIC50 [1]: 6.54

SMILES: Cc1ccc(-c2cc(COc3ccc([C@]4(N)CCN([C@H](CC(C)C)C(=O)NO)C4=O)cc3)c3ccccc3n2)cc1
pIC50 [1]: 5.54

SMILES: CC(C)C[C@H](C(=O)NO)N1CC[C@@](N)(c2ccc(OCc3cc(C4CCCCC4)nc4ccccc34)cc2)C1=O
pIC50 [1]: 6.75

SMILES: CC(C)C[C@H](C(=O)NO)N1CC[C@@](N)(c2ccc(OCc3cc(-c4ccc(OCc5ccccc5)cc4)nc4ccccc34)cc2)C1=O
pIC50 [1]: 5.40

Continued, in another order:

pIC50 [1]: 6.91
SMILES: CC(C)C[C@H](C(=O)NO)N1CC[C@@](N)(c2ccc(OCc3cc(COC(C)C)nc4ccccc34)cc2)C1=O

pIC50 [1]: 5.52
SMILES: COCc1cc(COc2ccc([C@]3(N)CCN([C@H](CC(C)C)C(=O)OC)C3=O)cc2)c2ccccc2n1

pIC50 [1]: 5.49
SMILES: COCc1cc(COc2ccc([C@]3(N)CCN([C@H](CC(C)C)C(=O)O)C3=O)cc2)c2ccccc2n1

Ratio IC50 [3]: > 500
pIC50 [4]: 5.97
pIC50 [5]: 6.00
Ratio IC50 [6]: > 500
pIC50 [7]: 5.97
pIC50 [8]: 5.93
pIC50 [9]: 5.92
pIC50 [10]: 5.91
pIC50 [11]: 5.95
Ratio IC50 [12]: > 500
Ratio IC50 [13]: > 500
Ratio IC50 [14]: > 500
pIC50 [15]: 5.91
Ratio IC50 [16]: > 500
pIC50 [17]: 5.94
pIC50 [1]: 7.96
Ratio IC50 [18]: > 500
Ratio IC50 [19]: > 500
Ratio IC50 [20]: > 500
pIC50 [21]: 8.68
SMILES: COCc1cc(COc2ccc([C@]3(N)CCN([C@H](CC(C)C)C(=O)NO)C3=O)cc2)c2ccccc2n1
ED50 [2]: 7.2 mg/kg
